In the OligoGym collection:
“And” between values parts separate entries of the source, which are not always exact repeats. Equal entries are not always repeated. After the bases stand the sugars from the 5' end (letter, count) and the backbone: PS all phosphorothioate, else s phosphorothioate and o phosphodiester by linkage. HELM strings list units from the 5' end as sugar, base in round brackets, then linkage (d deoxyribose, r ribose, m 2'-O-methyl, p phosphodiester). Methylation of C is not given here. [moe] = 2'-O-(2-methoxyethyl) (MOE); [cEt] = constrained ethyl (cEt); [sp] = phosphorothioate linkage; e = 2'-O-(2-methoxyethyl) (MOE); k = constrained ethyl (cEt); d = 2'-deoxy (DNA)

What was measured:
KRAS = settings: ASO
HBV = settings: ASO, HepG2, 0.07 µM

| Substance | target mRNA inhibition (KRAS; A431, 2 µM) | also measured |
| --- | --- | --- |
| GGAGTCTTTATAGTAA (sugars k3 d9 k3 e1, PS) | 41% | – |
| CAGTGTGACTCAGTTA (sugars kkdddddddddkekek, PS) | 56% | – |
| CCATTTATGTGACTAG (sugars kkdddddddddkekek, PS) | 25% | – |
| CAGTGTGACTCAGTTA (sugars kkkdddddddddkeke, PS) | 55% | – |
| AGGAGTCTTTATAGTA (sugars k3 d9 k3 e1, PS) | 6% | – |
| AGATTGTGCTGAGCTT (sugars kkkdddddddddkeke, PS) | 43% | – |
| TGATTTGTCAGCAGGA (sugars kkddddddddkekekk, PS) | 32% and 17% | – |
| TTCAAAGTTCACATAA (sugars k3 d10 k3, PS) | 7% | – |
| GATATCCACAGCAGCA (sugars k3 d10 k3, PS) | 10% | – |
| AAAGTGTTTATGCAAT (sugars k3 d10 k3, PS) | 29% | – |
| TAGTGATTAGGTCAAA (sugars k3 d9 k3 e1, PS) | 43% | – |
| AAAAGTGTTTATGCAA (sugars k3 d10 k3, PS) | 32% | – |
| ATTCAAAGTTCACATA (sugars k3 d10 k3, PS) | 0% | – |
| ACCAGTGTTAAGAGAA (sugars kkkddddddddkekek, PS) | 51% | – |
| CCATTCAAAGTTCACA (sugars kkddddddddddkeke, PS) | 63% | target mRNA inhibition (KRAS; A431, 0.185 µM): 19%; target mRNA inhibition (KRAS; A431, 0.556 µM): 32%; target mRNA inhibition (KRAS; A431, 1.667 µM): 50%; target mRNA inhibition (KRAS; A431, 5 µM): 67%; target mRNA inhibition (KRAS; NCI-H460, 0.037 µM): 54.7% |
| CCATTCAAAGTTCACA (sugars kkdddddddddkekek, PS) | 36% | – |
| TAATAGTTTCCATTGC (sugars k3 d10 k3, PS) | 53% | – |
| ATGGTGTAACATAGGT (sugars kkddddddddkekekk, PS) | 40% | – |
| GTTCTGTCTATTCATA (sugars k3 d10 k3, PS) | 31% | – |
| AGATTGTGCTGAGCTT (sugars kkddddddddkekekk, PS) | 0% | – |
| AGGAGTCTTTATAGTA (sugars kdddddddddkekeke, PS) | 24% | – |
| AGGCATTGCTAGTTCA (sugars k3 d10 k3, PS) | 55% | – |

| Substance | target mRNA inhibition (KRAS; A431, 2 µM) | also measured |
| --- | --- | --- |
| CAGTGTGACTCAGTTA (sugars kdddddddddkekeke, PS) | 54% | – |
| GACTTGAAAAGTGTTT (sugars k3 d10 k3, PS) | 14% | – |
| GCTGTGAAACTCTCTA (sugars kdddddddddkekeke, PS) | 2% | – |
| GAGTCTTTATAGTAAT (sugars kkddddddddkekekk, PS) | 0% | – |
| TTAATCCATTTATGTG (sugars k3 d10 k3, PS) | 34% | – |
| TCCAGTATTAACACAG (sugars k3 d10 k3, PS) | 34% | – |
| TTAGTGATTAGGTCAA (sugars kkddddddddkekekk, PS) | 33% | – |
| GGAGTCTTTATAGTAA (sugars kkdddddddddkdkdk, PS) | 29% | – |
| CCAGTGTTAAGAGAAC (sugars kkdddddddddkdkdk, PS) | 38% | – |
| TGTTTATGCAATGTTA (sugars k3 d9 k3 e1, PS) | 72% | target mRNA inhibition (KRAS; A431, 0.185 µM): 43%; target mRNA inhibition (KRAS; A431, 0.556 µM): 57%; target mRNA inhibition (KRAS; A431, 1.667 µM): 78%; target mRNA inhibition (KRAS; A431, 5 µM): 90%; target mRNA inhibition (KRAS; NCI-H460, 0.037 µM): 65.6% |
| AGTGTGACTCAGTTAA (sugars k3 d10 k3, PS) | 53% | – |
| TTTAATGTCACAAGCA (sugars k3 d10 k3, PS) | 57% | target mRNA inhibition (KRAS; A431, 0.037 µM): 58%; target mRNA inhibition (KRAS; A431, 5 µM): 96% and 93%; target mRNA inhibition (KRAS; NCI-H460, 0.037 µM): 44.2% |
| CATTTATGTGACTAGA (sugars kdddddddddkekeke, PS) | 24% | – |
| GGAGATATCCACAGCA (sugars k3 d10 k3, PS) | 0% | – |
| TGGTGAATATCTTCAA (sugars k3 d10 k3, PS) | 9% | – |
| AGCTATTAGGAGTCTT (sugars k3 d10 k3, PS) | 35% | – |
| CAACTGCATGCACCAA (sugars k3 d10 k3, PS) | 31% | – |
| ATGGTGTAACATAGGT (sugars kkkddddddddkekek, PS) | 43% | – |
| TTAGTGATTAGGTCAA (sugars kkdddddddddkekek, PS) | 48% | – |
| GTTGAGCTATCCAAAC (sugars k3 d10 k3, PS) | 2% | – |
| TGGTGTAACATAGGTT (sugars k3 d9 k3 e1, PS) | 56% | target mRNA inhibition (KRAS; A431, 0.185 µM): 21%; target mRNA inhibition (KRAS; A431, 0.556 µM): 46%; target mRNA inhibition (KRAS; A431, 1.667 µM): 69%; target mRNA inhibition (KRAS; A431, 5 µM): 80% |
| CTAAAACAAATGCTAA (sugars k3 d10 k3, PS) | 15% | – |

| Substance | target mRNA inhibition (KRAS; A431, 2 µM) | also measured |
| --- | --- | --- |
| CTTCATTGTTTAAAAA (sugars k3 d10 k3, PS) | 11% | – |
| TCCAGTGATACTTTCA (sugars kkdddddddddkdkdk, PS) | 35% | – |
| CTTGATTTGTCAGCAG (sugars k3 d9 k3 e1, PS) | 46% | – |
| CTTACAAATCTGAATT (sugars k3 d10 k3, PS) | 7% | – |
| CAGATTGTGCTGAGCT (sugars k3 d10 k3, PS) | 29% | – |
| ACCATTCAAAGTTCAC (sugars kkdddddddddkekek, PS) | 36% | – |
| GTAGTTTCACATAGCA (sugars k3 d10 k3, PS) | 46% | – |
| TCCATTTATGTGACTA (sugars k3 d10 k3, PS) | – | target mRNA inhibition (KRAS; A431, 0.185 µM): 29%; target mRNA inhibition (KRAS; A431, 0.556 µM): 59%; target mRNA inhibition (KRAS; A431, 1.667 µM): 65%; target mRNA inhibition (KRAS; A431, 5 µM): 78% |
| TTGTACTAGTATGCCT (sugars k3 d10 k3, PS) | 55% | – |
| CAGTGTGACTCAGTTA (sugars kkkddddddddkdkdk, PS) | 60% and 50% | target mRNA inhibition (KRAS; A431, 0.185 µM): 10%; target mRNA inhibition (KRAS; A431, 0.556 µM): 24%; target mRNA inhibition (KRAS; A431, 1.667 µM): 45%; target mRNA inhibition (KRAS; A431, 5 µM): 66% |
| GTAAATATAGCCCCAA (sugars k3 d10 k3, PS) | 29% | – |
| CCATTTATGTGACTAG (sugars kkdddddddddkdkdk, PS) | 43% | – |
| CCAGTGATACTTTCAC (sugars kdddddddddkekeke, PS) | 16% | – |
| GGTGTAACATAGGTTA (sugars kkddddddddkekekk, PS) | 54% | target mRNA inhibition (KRAS; A431, 0.185 µM): 0%; target mRNA inhibition (KRAS; A431, 0.556 µM): 2%; target mRNA inhibition (KRAS; A431, 1.667 µM): 40%; target mRNA inhibition (KRAS; A431, 5 µM): 58% |
| CAGTGTGACTCAGTTA (sugars kkkddddddddkekek, PS) | 63% | target mRNA inhibition (KRAS; A431, 0.185 µM): 28%; target mRNA inhibition (KRAS; A431, 0.556 µM): 24%; target mRNA inhibition (KRAS; A431, 1.667 µM): 46%; target mRNA inhibition (KRAS; A431, 5 µM): 71% |
| TTTATGCAATGTTAAT (sugars k3 d10 k3, PS) | 34% | – |
| AGATTGTGCTGAGCTT (sugars kkkddddddddkekek, PS) | 26% | – |
| CTGTAGTTTCACATAG (sugars k3 d10 k3, PS) | 25% | – |
| ACTTGTACTAGTATGC (sugars k3 d10 k3, PS) | 51% | – |
| RNA1{[moe](A)[sp].[moe](G)[sp].[moe](T)[sp].d(C)[sp].d(C)[sp].d(A)[sp].d(C)[sp].d(C)[sp].d(A)[sp].d(C)[sp].d(G)[sp].d(A)[sp].d(G)[sp].[cEt](T)[sp].[cEt](C)[sp].[cEt](T)}$$$$V2.0 | – | target mRNA inhibition (HBV): 35% and 29% |
